Measurements from patent US20060079453A1, “Hla binding peptides and their uses” (priority 2002, published 2006).
No end group written: not given here.

Columns and labels:
Assay in all cases: biochemical
Type in all cases: binding
HLA-DR DRB1*0701 (DR7) = HLA-DR DRB1*0701 (DR7) (Homo sapiens, UniProt P01903+P01911, A100R/A102G/A103Q/D57E/D86V/E43K/F76Y/K127E/L162R/M171V/P40G/Q125H/Q99D/R33Q/R42Y/R54Q/S133A/S66F/T210M/V115G/Y107V/Y59L/Y89S); conditions: DRB1 *0701
HLA-DR DRB1*1101 (DR11) = HLA-DR DRB1*1101 (DR11) (Homo sapiens, UniProt P01903+P01911, A100R/A169T/A87E/I96F/K41T/L162R/M171V/P40S/Q125H/Q178H/Q39Y/Q99D/R42S/S66Y/T262R/V115G/W38E); conditions: DRB1 *1101
HLA-DR DRB3*0101 (DR52) = HLA-DR DRB3*0101 (DR52) (Homo sapiens, UniProt P01903+P79483)
HLA-DR DRB5*0101 (DR51) = HLA-DR DRB5*0101 (DR51) (Homo sapiens, UniProt P01903+Q30154); conditions: DRB5 *0101
HLA-DR DRB4*0101 (DR53) = HLA-DR DRB4*0101 (DR53) (Homo sapiens, UniProt P01903+P13762, G164S); conditions: DRB4 *0101
HLA-DR DRB1*0901 (DR9) = HLA-DR DRB1*0901 (DR9) (Homo sapiens, UniProt P01903+P01911, A100R/A103E/D57H/D86V/F55Y/F60I/F76Y/I96F/K127E/L162R/M171V/P40D/Q125H/Q99R/R33Q/R42F/S133A/S66N/T210M/V115G/W38K/Y107V/Y59G/Y89S); conditions: DRB1 *0901
HLA-DR DRB1*0101 (DR1) = HLA-DR DRB1*0101 (DR1) (Homo sapiens, UniProt P01903+P01911, A100R/D57E/F55L/F60I/F76Y/I96L/L162R/M171V/P40L/Q125E/R42F/V115G/Y59C); conditions: DRB1 *0101
HLA-DR DRB1*1302 (DR13) = HLA-DR DRB1*1302 (DR13) (Homo sapiens, UniProt P01903+P01911, A100E/A169T/K41T/L162R/M171V/P40S/Q125H/Q178H/Q39Y/Q99D/R42S/S66N/T262R/V115G/W38E/Y61H); conditions: DRBI *1302
HLA-DR DRB1*1501 (DR15) = HLA-DR DRB1*1501 (DR15) (Homo sapiens, UniProt P01903+P01911); conditions: DRBI *1501
HLA-DR DRB1*0401 (DR4) = HLA-DR DRB1*0401 (DR4) (Homo sapiens, UniProt P01903+P01911, A100K/A169T/F76Y/I96L/K127E/L162R/M171V/N62H/P40V/Q125Y/R42H/S133A/S149N/S66Y/V115G/V209L/W38E); conditions: DRB1 *0401
HLA-DR DRB1*0802 (DR8) = HLA-DR DRB1*0802 (DR8) (Homo sapiens, UniProt P01903+P01911, A100R/A103L/A169T/F76Y/H45Y/I96F/K41T/L162R/M171V/P40S/Q125H/Q178H/Q39Y/Q99D/R218S/R42G/S66Y/V115G/W38E)
HLA-DR DRB1*0301 (DR3) = HLA-DR DRB1*0301 (DR3) (Homo sapiens, UniProt P01903+P01911, A100K/A102G/A103R/A169T/F55Y/I96L/K41T/L162R/M171V/P40S/Q125H/Q178H/Q39Y/R42S/S66N/T106N/T262R/W38E/Y61H)
Sequence of HLA-DR DRB1*0301 (DR3) (P01903 26-254 limits assumed, other chains not shown): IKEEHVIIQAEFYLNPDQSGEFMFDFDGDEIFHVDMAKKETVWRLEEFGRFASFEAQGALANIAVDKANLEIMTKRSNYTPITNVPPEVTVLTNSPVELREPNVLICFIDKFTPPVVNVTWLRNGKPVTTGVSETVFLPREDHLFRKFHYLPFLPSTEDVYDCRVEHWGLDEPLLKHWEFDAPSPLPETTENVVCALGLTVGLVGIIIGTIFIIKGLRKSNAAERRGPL

Sequence of HLA-DR DRB1*1101 (DR11) (P01903 26-254 limits assumed, other chains not shown): as above
Sequence of HLA-DR DRB1*1302 (DR13) (P01903 26-254 limits assumed, other chains not shown): as above

Molecule | IC50 (HLA-DR DRB1*0701 (DR7)) | IC50 (HLA-DR DRB1*1101 (DR11)) | IC50 (HLA-DR DRB3*0101 (DR52)) | IC50 (HLA-DR DRB5*0101 (DR51)) | IC50 (HLA-DR DRB4*0101 (DR53)) | IC50 (HLA-DR DRB1*0901 (DR9)) | IC50 (HLA-DR DRB1*0101 (DR1)) | IC50 (HLA-DR DRB1*1302 (DR13)) | IC50 (HLA-DR DRB1*1501 (DR15)) | IC50 (HLA-DR DRB1*0401 (DR4)) | IC50 (HLA-DR DRB1*0802 (DR8)) | IC50 (HLA-DR DRB1*0301 (DR3))
CC[C@H](C)[C@H](NC(=O)[C@H](CO)NC(=O)[C@H](CC(C)C)NC(=O)[C@@H](NC(=O)[C@H](CC(C)C)NC(=O)[C@@H](N)CC(=O)O)C(C)C)C(=O)N[C@@H](C)C(=O)N[C@@H](CC(C)C)C(=O)N[C@@H](CO)C(=O)N[C@H](C(=O)NCC(=O)N[C@@H](CS)C(=O)N[C@H](C(=O)NCC(=O)N[C@@H](C)C(=O)O)[C@@H](C)O)C(C)C | 4.03 µM | > 200 µM | > 14.9 µM | > 100 µM | 0.459 µM | 2.2 µM | 1.2 µM | 0.098 µM | 18.2 µM | 13 µM | > 245 µM | 
NGVLQGITSWGPEPC | 2.29 µM | 32.4 µM | > 14.4 µM | > 100 µM | 5.76 µM | 50.1 µM | 1.09 µM | > 17.5 µM | 0.835 µM | 8.43 µM | 52.2 µM | 
CC(C)C[C@H](NC(=O)[C@H](Cc1ccccc1)NC(=O)CNC(=O)[C@H](CC(C)C)NC(=O)[C@H](CO)NC(=O)[C@H](CC(C)C)NC(=O)[C@H](CO)NC(=O)[C@H](C)NC(=O)[C@H](C)NC(=O)[C@H](CCCNC(=N)N)NC(=O)[C@H](C)NC(=O)[C@H](CC(C)C)NC(=O)[C@H](CC(C)C)NC(=O)[C@H](CC(C)C)NC(=O)[C@@H]1CCCN1)C(=O)O |  |  | > 9.74 µM | 0.151 µM | 0.052 µM | 0.058 µM | 0.01 µM | 0.012 µM |  |  | 0.037 µM | > 81.8 µM
CC[C@H](C)[C@H](NC(=O)[C@H](CO)NC(=O)[C@H](CO)NC(=O)[C@H](CC(=O)O)NC(=O)[C@H](C)NC(=O)[C@H](CC(N)=O)NC(=O)[C@@H](NC(=O)[C@H](Cc1ccc(O)cc1)NC(=O)[C@H](C)NC(=O)[C@@H](NC(=O)CNC(=O)[C@H](CCCNC(=N)N)NC(=O)[C@@H](N)CCC(=O)O)C(C)C)[C@@H](C)CC)C(=O)N[C@@H](CCC(=O)O)C(=O)NCC(=O)O | 34 µM | > 50 µM | 6.85 µM | ≥ 200 µM | 0.087 µM | 25.5 µM | 2.44 µM | 3.69 µM | 30.3 µM | 6.76 µM | > 163 µM | 
GRAVCGGVLVHPQWV | 3.58 µM | > 50 µM | > 12.1 µM | ≥ 100 µM | 0.062 µM | 8.07 µM | 0.386 µM | 5.46 µM | 12.9 µM | > 26.7 µM | > 245 µM | 
CC(C)C[C@H](NC(=O)CNC(=O)[C@H](CC(N)=O)NC(=O)[C@@H](N)Cc1ccc(O)cc1)C(=O)N[C@@H](CC(C)C)C(=O)N1CCC[C@H]1C(=O)N1CCC[C@H]1C(=O)N[C@@H](Cc1ccc(O)cc1)C(=O)N[C@@H](C)C(=O)N[C@@H](CO)C(=O)N[C@@H](CS)C(=O)N[C@@H](Cc1c[nH]cn1)C(=O)N[C@@H](CC(C)C)C(=O)N[C@H](C(=O)N[C@@H](CCC(=O)O)C(=O)O)[C@@H](C)O | > 83.3 µM | 5.3 µM | > 15 µM | ≥ 100 µM | > 10.9 µM | 8.02 µM | 0.042 µM | 11.7 µM | 0.252 µM | 6.19 µM | 14 µM | 
CSCC[C@H](NC(=O)[C@@H](NC(=O)[C@H](CCCCN)NC(=O)[C@@H](NC(=O)[C@H](C)NC(=O)[C@H](CC(=O)O)NC(=O)[C@@H](N)[C@@H](C)O)C(C)C)C(C)C)C(=O)N[C@@H](CC(=O)O)C(=O)N[C@@H](CC(C)C)C(=O)N1CCC[C@H]1C(=O)N[C@H](C(=O)N[C@@H](CCC(N)=O)C(=O)N[C@@H](CCC(=O)O)C(=O)N1CCC[C@H]1C(=O)N[C@@H](C)C(=O)O)[C@@H](C)O | > 41.7 µM | > 50 µM | > 13.5 µM | > 200 µM | 0.747 µM | > 107 µM | > 50 µM | > 35 µM | > 45.5 µM | > 80 µM | 20.9 µM | 
CC[C@H](C)[C@H](NC(=O)[C@@H]1CCCN1C(=O)[C@H](CCC(N)=O)NC(=O)[C@@H](N)Cc1c[nH]c2ccccc12)C(=O)N1CCC[C@H]1C(=O)N[C@H](C(=O)N[C@@H](Cc1c[nH]cn1)C(=O)N[C@H](C(=O)N[C@H](C(=O)N1CCC[C@H]1C(=O)N[C@@H](CC(C)C)C(=O)N[C@@H](CO)C(=O)N[C@@H](CCC(=O)O)C(=O)N[C@@H](CC(=O)O)C(=O)N[C@@H](CCC(N)=O)C(=O)O)C(C)C)[C@@H](C)O)C(C)C | 0.159 µM | > 66.7 µM | > 8.83 µM | > 100 µM | 1.23 µM | 17.5 µM | 6.39 µM | 2.69 µM | > 45.5 µM | > 26.7 µM | > 81.7 µM | 
CC[C@H](C)[C@H](NC(=O)CNC(=O)[C@H](CCC(N)=O)NC(=O)[C@H](CC(C)C)NC(=O)[C@@H](NC(=O)CNC(=O)[C@H](CC(N)=O)NC(=O)[C@H](CS)NC(=O)[C@@H](NC(=O)[C@H](CC(C)C)NC(=O)[C@@H]1CCCN1C(=O)CNC(=O)CN)C(C)C)C(C)C)C(=O)N[C@H](C(=O)N[C@@H](CO)C(=O)O)[C@@H](C)O | > 35.7 µM | 1.83 µM | > 6.57 µM | 13.4 µM | 0.815 µM | 16.3 µM | 3.35 µM | 0.036 µM | 30.3 µM | 0.068 µM | 9.33 µM | 
KSRLQGGVLVNEILN | 2.84 µM | > 66.7 µM | > 15 µM | > 100 µM | 0.713 µM | 5.52 µM | 0.362 µM | 0.318 µM | > 30.3 µM | > 26.7 µM | > 81.7 µM | 
